*: point of attachment. X1 = CC[N+]1=C(/C=C/C=C/C=C2N(CCCCCC(=O)NCCN3C(=O)CC(*)C3=O)c3ccc(S(=O)(=O)O)cc3C2(C)C)C(C)(C)c2cc(S(=O)(=O)[O-])ccc21
What was measured:
[1] = tested on: Peripheral blood mononuclear cells (PBMC); experiment: Fluorescent labelling of PBMC; assay type: cell-based, human; conditions: PBMC fixed in PFA 3%
Text: Antibodies, fluorescent markers. For immunofluorescence assay, lactoferrin was detected with a mouse anti-lactoferrin primary monoclonal antibody (Hycult biotech, clone 265-1K1, 1:50 dilution) and an anti-mouse-FITC conjugated secondary antibody (1:1000). Nuclei were detected with DAPI (Life Technologies), Lyophilized MUB40 peptides (MUB40#1 (SEQ ID NO: 3)-Cy5, MUB40#2 (SEQ ID NO: 4)-Cy5, MUB40#3 (SEQ ID NO: 5)-Cy5, MUB40#4 (SEQ ID NO: 6)-Cy5, MUB40#1 (SEQ ID NO: 3)-Dylight, RI-MUB40 (SEQ ID NO: 2)-Cy5, and RI-MUB40 (SEQ ID NO: 2)-Biotin) were solubilized in a phosphate buffer pH8 at a 1 mg/mL concentration and used at a 1:1000 dilution. For PBMC staining CD19-APC (B lymphocytes), CD3-APC (T lymphocytes), and CD14-PercP (monocytes, macrophages) (BD Bioscience) were used at a 1:1000 dilution together with Dapi (1:1000) and MUB40-Cy5 (1 mg/mL). Actin was stained with Phalloidin-Rhodamine red X (RRX) (Jackson Immunoresearch Antibodies) used at a 1:1000 final dilution.
Polymorphonuclear neutrophils purification. Human polymorphonuclear neutrophils were purified as described previously (Monceaux et al. 2016). Briefly, plasma was removed by centrifugation (450×g, 15 min); blood cells were resuspended in 0.9% NaCl solution supplemented with 0.72% Dextran. […]

[2] = tested on: cystic fibrosis (CF) patients sputum; experiment: CF patient sputum immunofluorescent staining; parameters: species or system human; conditions: together with anti-Muc2 and anti-Muc5ac antibodies, 1 μg/mL
Experimental: FIG. 4. CF patient sputum immunofluorescent staining with MUB40-Cy5 (SEQ ID NO: 3), anti-Muc2 and anti-Muc5ac antibodies (with secondary antibodies conjugated with FITC and Rhodamin respectively).
Muc2 was stained with an anti-Mucin2 antibody (green). Muc5ac was stained with an anti-Mucin5ac antibody (red). Tissue was additionally stained with MUB40-Cy5 (1 μg/mL, magenta). DNA was stained with Dapi (blue).

[3] = tested on: recruited neutrophils and secreted lactoferrin; experiment: Labelling of human inflamed tissue biopsies; conditions: malignant fibrous histiocytoma and streptococcal skin abscess biopsies, 1 μg/mL
Text: Human inflammatory tissues. Human biopsies from patients diagnosed for malignant fibrous histiocytoma and for a streptococcal skin abscess were collected and processed at the Kremlin Bicêtre Hospital, Anatomy and Pathological Histology Department. Tissue samples were fixed in formaldehyde and further embedded in paraffin. 10 μm sections were obtained using a microtome (Leica Biosystem). Tissues were labeled with a mouse anti-lactoferrin primary monoclonal antibody (Hycult biotech, clone 265-1K1, 1:50 dilution), MUB40-Cy5 (SEQ ID NO: 3) (1 μg/mL), and Dapi (1:1000 dilution) as described below.

[4] = tested on: neutrophils recruited to mouse colon infected with Shigella sonnei; experiment: Mouse model of shigellosis, staining of fixed colon sections; conditions: 1 μg/ml
Experimental: Mouse. The experimental protocol was approved by the french Ethic Committee Paris (number 20150042). Female 6 week-old BALB/cJRi mice from Charles River were orally gavaged with streptomycin (100 μL of 200 mg/ml solution) 24 hours prior to Shigella sonnei infection. Mice were orally gavaged with 10^10 CFUs S. sonnei carrying pMW211 expressing DsRed and monitored for 24 hours. At the end of the experiment, animals were sacrificed and tissue sections from the colon were extracted. Colon sections were placed in 4% paraformaldehyde (PFA) solution for 2 hours. PFA fixed tissue sections were passaged for 16 hours in 16% sucrose followed by 4 hours in 30% sucrose solutions. Fixed colon slices were embedded in OCT (VWR 361603E) and flash frozen in dry ice chilled 2-methylbutane. Frozen blocks were stored at −80 until sectioning. […] Tissue slices were prepared for fluorescence microscopy by incubation in 0.1% saponin for 1 hour followed by incubation with fluorescent markers specific for actin (phalloidin-FITC, Life Technology) and MUB40-Cy5 at a final 1 μg/ml concentration. […]
Spinning disk microscope. Mouse colons infected with S. sonnei pDsRed were imaged on a Bruker Opterra fluorescence microscope using a Zeiss Plan-Apochromat 63×/1.40 oil immersion lense and Prairie View software version 5.3. […]

[5] = tested on: Human hematopoietic stem cells (CD34+); experiment: Labelling of hematopoietic stem cells and derived neutrophils; assay type: cell-based
Experimental: Hematopoietic Stem cells (CD34+) purification, proliferation and differentiation. HSC were purified from cytapheresis products with a CD34 Microbead Kit Ultrapure, according to the manufacturer procedure (Miltenyi). Lin^−/CD34+ HSC purity yield was >98%. CD34+ HSC were cultured in StemSpan SFEM II supplemented with SCF (100 ng/ml), IL-3 (10 ng/ml), and IL-6 (100 ng/ml) at 37° C. with 5% CO2. Neutrophil differentiation was induced in StemSpan SFEM II containing G-CSF (10 ng/ml), SCF (100 ng/ml), and IL-3 (10 ng/ml) for 13 days at 37° C. with 5% CO2.

Ac-C(X1)TAEGIKKFEGDGYELFKDNFPAGEKFDNDDTNDQFYTVIF-NH2 [Cy5-MUB40#1]
staining of CD3+, CD14+ and CD19+ cells [1]: not stained | labelling of CF patients sputum [2]: labeled | labelling of recruited neutrophils and secreted lactoferrin [3]: labeled | labelling of recruited neutrophils [4]: specifically labeled | labelling after differentiation in polymorphonuclear neutrophils ([5]; G-CSF, IL-3, IL-6, 2 weeks): positive staining | labelling of hematopoietic stem cells ([5]; during proliferation): not labelled

Source: patent US11472844B2, “Peptidomimetics, method of synthesis and uses thereof” (priority 2017, dated 2022)
